Consider 3 molecules from patent publication US20240285599A1, “Mature-Hepatocyte Transdifferentiation Suppressing Composition” (OSAKA UNIVERSITY, priority 2021, published 2024).

The series concerns TRAF3/PTEN knockdown HepG2 cell. Kind of series: KRT19 mRNA quantification and immunoblotting (P52) in TRAF3/PTEN knockdown HepG2. Format: cell-based, human. The conditions noted are these: HepG2 (PTKD #1); for increase in expression of P52 by knockdown of TRAF3 and PTEN: western blot. The procedure: The transfection of siRNA or a plasmid into cells was performed with Lipofectamine RNAiMAX Transfection Reagent (Thermo Fisher Scientific, Inc., USA) or Lipofectamine 2000 (Thermo Fisher Scientific, Inc., USA), respectively, and with Opti-MEM (Thermo Fisher Scientific, Inc., USA). The transfection of the siRNA was performed as follows: the cells were dispersed at a concentration of 100,000 cells/mL; 10 μM of the siRNA was mixed into 100 μL of the Opti-MEM at a ratio of 1 μL, and the mixture was left at rest for 5 minutes; and then 3 μL of the RNAiMAX was mixed into the mixture, and the whole was left at rest for 15 minutes, followed by administration to the supernatant of the previously dispersed cells. Further, a medium change was performed 24 hours thereafter.
A procedure for western blotting is as described in the previous report (Tanaka S, et al. Hepatology. 2016; 64(6): 1994-2014). The protein extracts of cells and animal tissues were prepared by using a lysis buffer having added thereto a protease inhibitor (Nacalai Tesque, Inc., Japan) and a phosphatase inhibitor (Nacalai Tesque, Inc., Japan). In western blotting for the detection of NIK, MG-132 (ChemScene, USA) was administered at a concentration of 5 μM 4 hours before protein recovery. The following antibodies were used in immunodetection: TRAF3 (1:1,000 Cell Signaling, #4729), PTEN (1:1,000 Cell Signaling, #9188), KRT19 (1:50,000 Abcam, #ab52625), p100/p52 (1:1,000 Cell Signaling, #4882), NIK (1:1,000 Cell Signaling, #4994), and β-actin (1:10,000 Sigma-Aldrich Co., LLC, #A5316). Anti-mouse IgG, HRP-linked whole Ab sheep (Cytiva, Japan), or anti-rabbit IgG, HRP-linked whole Ab donkey (Cytiva, Japan) was used as a secondary antibody, and luminescence analysis was performed with SuperSignal (trademark) West Pico PLUS Chemiluminescent Substrate (Thermo Fisher Scientific, Inc., USA).
Total RNA was extracted from a cell line and a human liver tissue with RNeasy Mini Kit (QIAGEN N.V., Nederland). Then, 1 μg of the total RNA was reverse-transcribed with ReverTra Ace qPCR RT Kit (Toyobo Co., Ltd., Tokyo) to synthesize complementary DNA. The mRNA expression of each of the following genes was analyzed through use of a TaqMan gene expression assay: human GAPDH (Hs02758991), human TRAF3 (Hs00936781), human PTEN (Hs02621230), human KRT19 (Hs00761767), human NIK (Hs01089753), mouse Gapdh (Mm09999915), mouse Traf3 (Mm00495752), mouse Pten (Mm00477208), mouse Krt19 (Mm00492980), mouse NIK (Mm00444166), and mouse Alb (Mm00802090). The gene expression amount of a human and the gene expression amount of a mouse were normalized to the expression amount of GAPDH.
The effect of TRAF3/PTEN inhibition on the expression of a bile duct marker in each of a primary human hepatocyte (hereinafter also referred to as “PHH”) and a human hepatoma cell line HepG2 cell (hereinafter also referred to as “HepG2”) was evaluated. The PHH and the HepG2 are each a mature hepatocyte having an albumin-producing ability. The TRAF3 and PTEN of each of the HepG2 and the PHH were knocked down with siRNA. The term “[…]” means a HepG2 or a PHH having introduced thereinto siRNA Traf3 #2 and Pten #1 (hereinafter also referred to as “PTKD #1HepG2” and “PTKD #1PHH” respectively). The term “PTKD #2” means a HepG2 or a PHH having introduced thereinto the siRNA Traf3 #2 and Pten #3 (hereinafter also referred to as “PTKD #2HepG2” and “PTKD #2PHH” respectively). All the siRNAs were obtained from Thermo Fisher Scientific, Inc. The sequence of each of the siRNAs is described below.
Specifically, 24 hours after the start of the culture of each of the PTKD #1HepG2 and the PTKD #1PHH obtained in Test Example 5, NIKSMI described above was added at a concentration of 9 μM. 48 Hours after that, the cells were recovered, and the mRNA of KRT19 was quantified, followed by immunoblotting. […]

Where [1] appears, read: NIK siRNA transfected, 72 h, FIG. 13.
[2] abbreviates: NIK siRNA transfected, cells recovered after 72 h culture, FIG. 13.

With `COc1cc(C(N)=O)nc(-c2cccc(C#C[C@]3(O)CCN(C)C3=O)c2)c1` [NIKSMI, (R)-6-(3-((3-hydroxy-1-methyl-2-oxopyrrolidin-3-yl)ethynyl)phenyl)-4-methoxypicolinamide], the “increase in expression of KRT19 by knockdown of TRAF3 and PTEN” value (shortened to “increase in expression of KRT19”) (NIKSMI 9 μM added 24 h after start of culture, cells recovered 48 h later, FIG. 11) is “significantly suppressed”. Further, the “increase in expression of P52 by knockdown of TRAF3 and PTEN” value (shortened to “increase in expression of P52”) (NIKSMI 9 μM, 48 h, FIG. 11) is “significantly suppressed”.
As to “NIK KD #2: siRNA of NIK, SEQ ID NO: 4 (sense) and 5 (antisense), from Thermo Fisher Scientific (sense GCAAAGAGCAAGAACCAAAUU; antisense UUUGGUUCUUGCUCUUUGCGU; listed as RNA, chemistry not given here)”, the “increase in expression of P52” value under setting [1] is on record as “significantly suppressed”. Besides, the “increase in expression of KRT19” value under setting [2] is recorded as “significantly suppressed”.
Consider “NIK KD #1: siRNA of NIK, SEQ ID NO: 2 (sense) and 3 (antisense), from Thermo Fisher Scientific (sense CAAACGCAAAGAGCAAGAAUU; antisense UUCUUGCUCUUUGCGUUUGCA; listed as RNA, chemistry not given here)”, for which, under setting [1], the “increase in expression of P52” value is on record as “significantly suppressed”. Under setting [2], the “increase in expression of KRT19” value is reported as “significantly suppressed”.
